# Measured values taken from patent publication US20030124159A1, “Enhancing epidermal barrier development in skin” (Unilever Home & Personal Care USA, Division of Conopco, Inc, priority 2001, published 2003).
# Tests used:
# human LXR = target: T1, human LXR (Homo sapiens, UniProt Q13133); test: Reporter gene assay for activation of LXRα in transfected cos-7 cells; type: cell-based
# T1 construct: expressed in transfected cells; host or cells: cos-7 cells (ECACC No. 87021302)
# T1 sequence (Q13133 1-447): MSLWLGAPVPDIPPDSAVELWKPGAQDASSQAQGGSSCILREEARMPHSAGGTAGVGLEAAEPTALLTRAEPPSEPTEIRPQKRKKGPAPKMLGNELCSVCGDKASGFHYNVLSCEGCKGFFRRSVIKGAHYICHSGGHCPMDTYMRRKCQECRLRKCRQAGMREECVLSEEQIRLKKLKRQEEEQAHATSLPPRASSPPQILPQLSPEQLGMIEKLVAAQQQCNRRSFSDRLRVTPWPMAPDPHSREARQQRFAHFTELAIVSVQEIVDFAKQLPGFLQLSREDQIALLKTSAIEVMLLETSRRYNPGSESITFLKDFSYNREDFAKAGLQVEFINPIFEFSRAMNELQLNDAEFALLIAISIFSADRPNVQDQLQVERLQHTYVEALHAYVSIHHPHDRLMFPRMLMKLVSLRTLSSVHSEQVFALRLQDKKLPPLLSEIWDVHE
# T1 sequence (P19793 1-462 partner): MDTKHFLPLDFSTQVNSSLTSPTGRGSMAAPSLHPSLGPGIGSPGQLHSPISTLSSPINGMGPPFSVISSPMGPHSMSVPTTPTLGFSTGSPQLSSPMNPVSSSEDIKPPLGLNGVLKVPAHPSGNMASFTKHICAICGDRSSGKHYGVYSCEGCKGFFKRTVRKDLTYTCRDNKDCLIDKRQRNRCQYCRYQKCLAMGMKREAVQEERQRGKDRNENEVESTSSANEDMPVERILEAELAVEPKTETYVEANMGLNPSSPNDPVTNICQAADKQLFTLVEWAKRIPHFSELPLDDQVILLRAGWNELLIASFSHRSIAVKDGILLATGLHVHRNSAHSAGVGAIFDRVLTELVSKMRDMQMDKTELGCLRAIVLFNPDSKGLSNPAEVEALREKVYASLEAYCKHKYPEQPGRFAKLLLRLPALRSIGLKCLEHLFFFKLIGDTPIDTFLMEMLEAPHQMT
# Protocol: The activation of LXRα has been determined by a reporter gene assay based on that described by Kliewer et al (Nature 358 771-774 1992). Wherein cos-7 cells (ECACC No. 87021302) were seeded in 24-well plates at a density of 5×10^4 cells/well. Cells were grown overnight at 37° C./5% CO2 in DMEM containing 10% FCS, 2mM L-glutamine, […] penicillin and 100 µg/ml streptomycin.
# A commerically available vector-pNFκB-Luc (Clontech) was used as the basic reporter plasmid as it contained the firefly luciferase gene downstream of the thymidine kinase promoter element. The NFκB consensus sequence was exised using restriction enzymes Mlu I and Bgl II and replaced with 3 direct repeats of the DNA response element sequence for the LXR nuclear receptor.
# The response element was taken from Willy, P. et al (1995)(from a promoter region of the mouse mammary tumour virus), and repeated three times and encorporated restriction enzyme sites for Mlu I and Bgl II at either end to orientate the fragment during cloning (FIG. 5). This long oligonucleotide was synthesised, and an annealing primer designed to allow production of a double-stranded DNA template by Klenow fill-in.
# This dsDNA template along with the vector pNFκB-Luc were then cut with both Mlu I and Bgl II restriction enzymes to allow cloning of the insert into this vector. ligation of the insert and vector occurred, followed by heat-shock transformation into a E. coli strain (JM109) followed by selection of recombinants on LB agar+Ampicillin (100 μg/ml). Mini liquid cultures of each colony generated were established and mini-plasmid preparations done (Qiagen protocols followed), furthered by restriction digests to check the size of the recombinant insert.
# The pRSV/hRXRα was prepared via the method of Collingwood T N et al. 1997. J Biol Chem. 272: 13060-5. Transformation was performed as described above, and bulk plasmid preparations were performed from 100 ml overnight cultures. The selectable antibiotic for this vector was 100 μg/ml Ampicilin.
# Transfection of cells was performed using Lipofectamine (Gibco Brl) as directed by the manufactures. Transfected cells were incubated for 5 h at 37° C./5% CO2 and serum then added to a final concentration of 2%. Cells were then incubated for a further 24 hours in the presence or absence of ligand. After 24 hours cell lysates were prepared and the level of firefly and renilla luciferase determined using the Dual luciferase assay system (Promega) and a MLX microtitre plate luminometer (Dynex).
# Cells were washed with transfection media (DMEM) then transiently transfected with 4 plasmids: a LXR-responsive firefly luciferase reporter gene (pLXRE-luc); mammalian expression plasmids (pcDNA3.1/LXR, and pRSV/hRXRα) containing human LXR and RXRα cDNAs respectively and a control plasmid (pRLTK, Promega) which constitutatively expresses the renilla luciferase gene.
# Transfected cells were incubated for 5 h at 37°C./5% CO2 and serum then added to a final concentration of 2%. Cells were then incubated for further 24 hours in the presence or absence of ligand. After 24 hours cell lysates were prepared and the level of firefly and renilla luciferase determined using the Dual luciferase assay system (Promega) and a MLX microtitre plate luminometer (Dynex). The level of firefly luciferase (normalised against the renilla luciferase control) provides a measure of reporter gene activity. This in turn reflects the level of LXR activation
# The level of firefly luciferase (normalised against the renilla luciferase control) provides a measure of reporter gene activity which in turn reflects the level of LXRα activation.
# filaggrin = test: RNA expression analysis of filaggrin in human epidermal cultures (Integriderm array); type: cell-based
# Protocol: Commercially available human epidermal cultures were obtained from Skin Ethic™. The cultures were incubated in DMEM supplemented with guggul sterone (conctri) or vehicle alone (X % ethanol) for X days. Medium was replaced every day.
# RNA was then extracted from cultures using the Qaigen RNEasy™ minikit according to manufacturers' instructions. The RNA was than DNAse treated and quantified by measuring OD at 260 & 280 nm with a spectrophotometer.
# The level of gene expression was then determined using the Integridenm array from Research Genetics. RNA expression in guggul sterone treated cultures was compared to that in cultures treated with vehicle alone according to manufacturers' instructions broadly detailed below.
# To prehybridise, each membrane was placed in a seperate roller bottle with the DNA spotted side facing inwards 5.0 ml MicroHyb (Research Genetics #HYB125.GF) was added to each bottle as well as the blocking agents;
# 20 ul mastermix was added to each tube containing RNA and oligo dT, and the reaction incubated at […] 42° C. for 90 mins. Bio-Spin 6 columns (Bio-Rad #732-6002) were then used to remove unincorporated nucleotides according to the manufacturer's instructions.
# The cDNA was denatured by heating to 99° C. for 3 mins and chilled on ice for 2 mins. Hybridisation was carried out at 42° C. for 16-20 hrs in a rotating oven.
# Membranes were washed 4× with ˜30 ml wash 1 solution (2× SSC, 1% SDS) at 50° C. for 20 mins/wash in rotating oven. This was followed by 2 further washes in ˜30 ml wash 2 solution (0.5× SSC, 1% SDS) at 50° C. for 15 mins/wash in a rotating oven.
# Images of the membranes were obtained using a phosphorimager (Molecular Dynamics) using a pixel size of 100 u during the scanning. Images were converted to “TIF” files to allow analysis using Pathways™2.01 software (Research Genetics) and spot intensities compared to indicate changes in RNA expression. Each array contains 3 separate spots of filaggrin DNA and the average of all 3 spot intensities was calculated for each array. […]
compound,measurement,setting,value
"CC(C)CC[C@@H](O)[C@@H](C)[C@H]1CC[C@H]2[C@@H]3CC=C4C[C@@H](O)CC[C@]4(C)[C@H]3CC[C@]12C [22R-hydroxycholesterol, reference compound]",Reporter Gene Activity Foloinduction relative to vertical Mean,"human LXR; 32 μM, positive control in desmosterol experiment",4.8
same,Reporter Gene Activity Foloinduction relative to vertical Mean,"human LXR; 35 μM, positive control in cis-guggal sterone experiment",6
same,Reporter Gene Activity Foloinduction relative to vertical Mean,"human LXR; 50 μM, positive control in cis-guggal sterone experiment",6.59
C/C=C1\C(=O)C[C@H]2[C@@H]3CCC4=CC(=O)CC[C@]4(C)[C@H]3CC[C@]12C [Cis-guggal Sterone],Spot intensity (filaggrin),"filaggrin; human epidermal cultures, average of 3 filaggrin spots, normalised against average intensity of all spots",2885
same,Changes in the expression relative to vehicle (filaggrin),"filaggrin; human epidermal cultures, relative to vehicle",1.54 (+/−0.17)
same,filaggrin mRNA levels (in words),filaggrin; treatment of epidermal cultures,elevation of filaggrin mRNA levels
same,Reporter Gene Activity Foloinduction relative to vertical Mean,"human LXR; 16 μM, cos-7 cells, 24 hours with ligand, firefly luciferase normalised against renilla",3.9
same,Reporter Gene Activity Foloinduction relative to vertical Mean,"human LXR; 32 μM, cos-7 cells, 24 hours with ligand, firefly luciferase normalised against renilla",8
same,Reporter Gene Activity Foloinduction relative to vertical Mean,"human LXR; 64 μM, cos-7 cells, 24 hours with ligand, firefly luciferase normalised against renilla",17.3
"CC(C)=CCC[C@@H](C)[C@H]1CC[C@H]2[C@@H]3CC=C4C[C@@H](O)CC[C@]4(C)[C@H]3CC[C@]12C [Desmosterol, cholesta-5,24-dien-3β-ol]",Reporter Gene Activity Foloinduction relative to vertical Mean,"human LXR; 26 μM, cos-7 cells, 24 hours with ligand, firefly luciferase normalised against renilla",9.27
